Reference: patent US20240287138A1, “CYCLIC PEPTIDES FOR INHIBITING TNF RECEPTOR 1 ACTIVITY” (Merck Sharp & Dohme LLC, priority 2023, published 2024)
Numbered stars: 1 amine (or outer) side, 2 acyl side, 3 side chain; on linkers, the order of the positions; unused ones are H or OH. Bridge positions count the residues as written; N and C are the ends. Square brackets hold non-standard residues; d marks the D form. Peptide text beside a SMILES is read from it. * marks the point of attachment. Trp(βS-Me,7-OMe) = COc1cccc2c([C@H](C)[C@H](N)C(=O)O)c[nH]c12; X49 = C[N+](C)(C)CC(=O)N[C@H]1C[C@H](C(=O)[*:2])N([*:1])C1; Trp(1-CH2COOH) = N[C@@H](Cc1cn(CC(=O)O)c2ccccc12)C(=O)O; X44 = NC(=O)c1ccc([C@@H](O)[C@H](N[*:1])C(=O)[*:2])cc1; Phe(4-SO2NH2) = N[C@@H](Cc1ccc(S(N)(=O)=O)cc1)C(=O)O; Ala(indazol-1-yl) = N[C@@H](Cn1ncc2ccccc21)C(=O)O; Trp(7-CN) = N#Cc1cccc2c(C[C@H](N)C(=O)O)c[nH]c12; Trp(7-Cl) = N[C@@H](Cc1c[nH]c2c(Cl)cccc12)C(=O)O; X27 = O=C(O)c1ccc(C[C@H](N[*:1])C(=O)[*:2])cc1F; Phe(4-CONH2) = NC(=O)c1ccc(C[C@H](N)C(=O)O)cc1; Phe(4-COOH) = N[C@@H](Cc1ccc(C(=O)O)cc1)C(=O)O; X30 = O=C([C@@H](N[*:1])[C@H](O)c1ccncc1)[*:2]; Trp(7-aza) = N[C@@H](Cc1c[nH]c2ncccc12)C(=O)O; X48 = O=C([C@H](CC12CC(O)(C1)C2)N[*:1])[*:2]; X52 = C[C@@H](C(=O)[*:2])N(CCC(N)=O)[*:1]; Pip(5R-OH) = O=C(O)[C@@H]1CC[C@@H](O)CN1; X1 = O=C([C@@H]1CC[C@H](N[*:1])C1)[*:2]; AEF = NCCOc1ccc(C[C@H](N)C(=O)O)cc1; 4Pal = N[C@@H](Cc1ccncc1)C(=O)O; Ethyl(2-NMe3+) = C[N+](C)(C)CC*; NMeE = CN[C@@H](CCC(=O)O)C(=O)O; dHyp = O=C(O)[C@H]1C[C@H](O)CN1; αMeS = C[C@](N)(CO)C(=O)O; Carboxymethyl = O=C(O)C*; Nle = CCCC[C@H](N)C(=O)O; Sar = CNCC(=O)O

Assays:
[1] = biological target: T1, human soluble TNFR1 (sTNFR1) (Homo sapiens, UniProt P19438); experiment: Human sTNFR1-peptide displacement assay (LanthaScreen Eu TR-FRET binding assay)
T1 construct: made in house; host or cells: Sf21 (baculovirus)
T1 sequence (P19438 with tags, fused parts or gaps): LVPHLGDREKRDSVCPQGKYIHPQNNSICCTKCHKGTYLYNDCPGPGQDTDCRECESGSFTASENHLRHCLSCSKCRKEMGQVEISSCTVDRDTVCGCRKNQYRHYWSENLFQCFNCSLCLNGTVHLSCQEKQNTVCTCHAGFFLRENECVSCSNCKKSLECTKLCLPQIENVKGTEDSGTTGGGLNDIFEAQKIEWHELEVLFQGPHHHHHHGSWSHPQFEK
Summary of the method: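 Readout is the 665/615 nm TR-FRET ratio (Eu anti-His donor, streptavidin-Alexa647 acceptor), normalized to DMSO and saturating displacer, fit by Morrison-based five-parameter logistic for Kd^app. His-tagged sTNFR1 (1-211) prebound to 100 nM biotinylated peptide SEQ ID NO.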

[2] = biological target: T2, TNFα-induced NF-κB signal transduction pathway (TNFR1 signaling) in THP-1 cells (Homo sapiens, UniProt P19438); experiment: THP-1 Lucia NF-κB reporter cell assay, inhibition of TNFα-induced NF-κB signaling; format: cell-based; conditions: THP-1 NF-κB Lucia reporter cells, 10 ng/mL TNFα, 16-18 h, secreted luciferase; read-out: THP-1 IC50
T2 sequence (P19438 30-455): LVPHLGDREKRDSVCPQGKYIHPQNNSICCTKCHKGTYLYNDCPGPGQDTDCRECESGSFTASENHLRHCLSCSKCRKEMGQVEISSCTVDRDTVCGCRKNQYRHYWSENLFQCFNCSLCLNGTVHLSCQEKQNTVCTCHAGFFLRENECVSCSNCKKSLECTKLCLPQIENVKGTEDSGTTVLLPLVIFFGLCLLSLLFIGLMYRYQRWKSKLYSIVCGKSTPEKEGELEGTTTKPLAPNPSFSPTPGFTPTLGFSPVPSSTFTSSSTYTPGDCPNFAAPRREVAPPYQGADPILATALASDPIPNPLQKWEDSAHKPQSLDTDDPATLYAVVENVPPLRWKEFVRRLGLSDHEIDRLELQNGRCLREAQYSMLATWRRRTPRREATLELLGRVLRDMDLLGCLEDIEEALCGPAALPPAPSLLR
Summary of the method: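 IC50 from a 4-parameter logistic fit of secreted luciferase luminescence (QUANTI-Luc), normalised to min/max controls. Reporter THP-1 cells were exposed to peptides for 1 h at 37 °C before 10 ng/mL TNFα (final) was added overnight (16–18 h).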

SMILES | Kd [1] [nM] | IC50 [2] [nM]
CCCC[C@@H]1NC(=O)[C@@H]2CC[C@@H](C2)NC(=O)[C@H]([C@@H](C)c2c[nH]c3c(OC)cccc23)NC(=O)CN(C)C(=O)[C@H](Cc2ccc(C(=O)O)cc2)NC(=O)[C@H](Cc2ccc(C(N)=O)cc2)NC(=O)[C@](C)(CO)NC(=O)[C@H](Cc2c[nH]c3c(C#N)cccc23)NC(=O)[C@H](Cc2ccc(C(=O)O)c(F)c2)NC(=O)[C@H](CC(N)=O)NC(=O)[C@H]2C[C@H](NC(=O)C[N+](C)(C)C)CN2C(=O)[C@H](Cc2c[nH]c3ncccc23)NC(=O)[C@@H]2CC[C@@H](O)CN2C(=O)[C@H](Cc2ccncc2)NC1=O [SEQ ID NO. 116] (cyclo([4Pal][Pip(5R-OH)][Trp(7-aza)][X49]N[X27][Trp(7-CN)][αMeS][Phe(4-CONH2)][Phe(4-COOH)][Sar][Trp(βS-Me,7-OMe)][X1][Nle])) | 0.08 | 0.4
CCCC[C@@H]1NC(=O)[C@@H]2CC[C@@H](C2)NC(=O)[C@H]([C@@H](C)c2c[nH]c3c(OC)cccc23)NC(=O)CN(C)C(=O)[C@H](Cc2ccc(C(=O)O)cc2)NC(=O)[C@H]([C@H](O)c2ccc(C(N)=O)cc2)NC(=O)[C@](C)(CO)NC(=O)[C@H](Cc2c[nH]c3c(C#N)cccc23)NC(=O)[C@H](Cc2ccc(S(N)(=O)=O)cc2)NC(=O)[C@H](CC(N)=O)NC(=O)[C@H]2C[C@H](O)CN2C(=O)[C@H](Cc2cn(CC(=O)O)c3ccccc23)NC(=O)[C@@H]2CC[C@@H](O)CN2C(=O)[C@H](Cc2ccncc2)NC1=O [SEQ ID NO. 119] (cyclo([4Pal][Pip(5R-OH)][Trp(1-CH2COOH)][dHyp]N[Phe(4-SO2NH2)][Trp(7-CN)][αMeS][X44][Phe(4-COOH)][Sar][Trp(βS-Me,7-OMe)][X1][Nle])) | 0.12 | 0.7
CCCC[C@@H]1NC(=O)[C@@H]2CC[C@@H](C2)NC(=O)[C@H]([C@@H](C)c2c[nH]c3c(OC)cccc23)NC(=O)CN(C)C(=O)[C@H](Cc2ccc(OCC(=O)O)cc2)NC(=O)[C@H](Cc2ccc(C(N)=O)cc2)NC(=O)[C@](C)(CO)NC(=O)[C@H](Cc2c[nH]c3c(Cl)cccc23)NC(=O)[C@H](Cc2ccncc2)NC(=O)[C@H](CC(N)=O)NC(=O)[C@H](CCC(=O)O)N(C)C(=O)[C@H](Cc2c[nH]c3ccccc23)NC(=O)[C@@H]2CC[C@@H](O)CN2C(=O)[C@H](Cc2ccncc2)NC1=O [SEQ ID NO. 126] (cyclo([4Pal][Trp(7-Cl)][αMeS][Phe(4-CONH2)]Y(Carboxymethyl)[Sar][Trp(βS-Me,7-OMe)][X1][Nle][4Pal][Pip(5R-OH)]W[NMeE]N)) | 0.08 | 0.8
CCCC[C@@H]1NC(=O)[C@@H]2CC[C@@H](C2)NC(=O)[C@H]([C@@H](C)c2c[nH]c3c(OC)cccc23)NC(=O)CN(C)C(=O)[C@H](Cc2ccc(C(N)=O)cc2)NC(=O)[C@H](Cc2ccc(C(N)=O)cc2)NC(=O)[C@](C)(CO)NC(=O)[C@H](Cc2c[nH]c3c(C#N)cccc23)NC(=O)[C@H]([C@H](O)c2ccncc2)NC(=O)[C@H](CC(N)=O)NC(=O)[C@H]2C[C@H](OCC(=O)O)CN2C(=O)[C@H](Cc2cn(CC(=O)O)c3ccccc23)NC(=O)[C@@H]2CC[C@@H](O)CN2C(=O)[C@H](Cc2ccncc2)NC1=O [SEQ ID NO. 129] (cyclo([4Pal][Pip(5R-OH)][Trp(1-CH2COOH)][dHyp](Carboxymethyl)N[X30][Trp(7-CN)][αMeS][Phe(4-CONH2)][Phe(4-CONH2)][Sar][Trp(βS-Me,7-OMe)][X1][Nle])) | 0.48 | 3.1
CCCC[C@@H]1NC(=O)[C@@H]2CC[C@@H](C2)NC(=O)[C@H]([C@@H](C)c2c[nH]c3c(OC)cccc23)NC(=O)CN(C)C(=O)[C@H](Cc2ccc(OCC(=O)O)cc2)NC(=O)[C@H](Cc2ccc(S(N)(=O)=O)cc2)NC(=O)[C@](C)(CO)NC(=O)[C@H](Cc2c[nH]c3c(C#N)cccc23)NC(=O)[C@H](Cc2ccc(OCC(=O)O)cc2)NC(=O)[C@H](CC(N)=O)NC(=O)[C@H]2C[C@H](O)CN2C(=O)[C@H](Cc2c[nH]c3ccccc23)NC(=O)[C@@H]2CC[C@@H](O)CN2C(=O)[C@H](Cc2ccncc2)NC1=O [SEQ ID NO. 135] (cyclo([4Pal][Pip(5R-OH)]W[dHyp]NY(Carboxymethyl)[Trp(7-CN)][αMeS][Phe(4-SO2NH2)]Y(Carboxymethyl)[Sar][Trp(βS-Me,7-OMe)][X1][Nle])) | 0.07 | 0.4
CCCC[C@@H]1NC(=O)[C@@H]2CC[C@@H](C2)NC(=O)[C@H]([C@@H](C)c2c[nH]c3c(OC)cccc23)NC(=O)CN(C)C(=O)[C@H](Cc2ccc(C(N)=O)cc2)NC(=O)[C@H](Cc2ccc(S(N)(=O)=O)cc2)NC(=O)[C@](C)(CO)NC(=O)[C@H](Cc2c[nH]c3c(C#N)cccc23)NC(=O)[C@H](Cc2ccc(C(=O)O)cc2)NC(=O)[C@H](CC(N)=O)NC(=O)[C@H]2C[C@H](OCC[N+](C)(C)C)CN2C(=O)[C@H](Cc2cn(CC(=O)O)c3ccccc23)NC(=O)[C@@H]2CC[C@@H](O)CN2C(=O)[C@H](Cc2ccncc2)NC1=O [SEQ ID NO. 136] (cyclo([4Pal][Pip(5R-OH)][Trp(1-CH2COOH)][dHyp](Ethyl(2-NMe3+))N[Phe(4-COOH)][Trp(7-CN)][αMeS][Phe(4-SO2NH2)][Phe(4-CONH2)][Sar][Trp(βS-Me,7-OMe)][X1][Nle])) | 0.07 | 0.4
CCCC[C@@H]1NC(=O)[C@@H]2CC[C@@H](C2)NC(=O)[C@H]([C@@H](C)c2c[nH]c3c(OC)cccc23)NC(=O)CN(C)C(=O)[C@H](Cc2ccc(O)cc2)NC(=O)[C@H](Cc2ccc(C(N)=O)cc2)NC(=O)[C@](C)(CO)NC(=O)[C@H](Cc2c[nH]c3c(Cl)cccc23)NC(=O)[C@H](Cc2ccc(OCCN)cc2)NC(=O)[C@H](CC(N)=O)NC(=O)[C@H](CCC(=O)O)N(C)C(=O)[C@H](Cc2c[nH]c3ccccc23)NC(=O)[C@@H]2CC[C@@H](O)CN2C(=O)[C@H](Cc2ccncc2)NC1=O [SEQ ID NO. 145] (cyclo([4Pal][Pip(5R-OH)]W[NMeE]N[AEF][Trp(7-Cl)][αMeS][Phe(4-CONH2)]Y[Sar][Trp(βS-Me,7-OMe)][X1][Nle])) | 0.18 | 0.8
CCCC[C@@H]1NC(=O)[C@@H]2CC[C@@H](C2)NC(=O)[C@H]([C@@H](C)c2c[nH]c3c(OC)cccc23)NC(=O)CN(C)C(=O)[C@H](Cc2ccc(C(N)=O)cc2)NC(=O)[C@H](Cc2ccc(C(N)=O)cc2)NC(=O)[C@](C)(CO)NC(=O)[C@H](Cc2c[nH]c3c(C#N)cccc23)NC(=O)[C@H](Cc2ccc(C(=O)O)cc2)NC(=O)[C@H](CC(N)=O)NC(=O)[C@H](C)N(CCC(N)=O)C(=O)[C@H](Cc2c[nH]c3ncccc23)NC(=O)[C@@H]2CC[C@@H](O)CN2C(=O)[C@H](Cc2ccncc2)NC1=O [SEQ ID NO. 147] (cyclo([4Pal][Pip(5R-OH)][Trp(7-aza)][X52]N[Phe(4-COOH)][Trp(7-CN)][αMeS][Phe(4-CONH2)][Phe(4-CONH2)][Sar][Trp(βS-Me,7-OMe)][X1][Nle])) | 0.21 | 1.4
CCCC[C@@H]1NC(=O)CSC[C@@H](C(N)=O)NC(=O)[C@H]([C@@H](C)c2c[nH]c3c(OC)cccc23)NC(=O)CN(C)C(=O)[C@H](Cc2ccc(O)cc2)NC(=O)[C@H](Cc2ccc(C(=O)O)cc2)NC(=O)[C@](C)(CO)NC(=O)[C@H](Cc2c[nH]c3c(Cl)cccc23)NC(=O)[C@H](Cc2ccncc2)NC(=O)[C@H](CC(N)=O)NC(=O)[C@H](CCC(=O)O)N(C)C(=O)[C@H](Cn2ncc3ccccc32)NC(=O)[C@H]([C@@H](C)O)NC(=O)[C@H](CC23CC(O)(C2)C3)NC1=O [SEQ ID NO. 152] ({CH2CO}-[Nle][X48]T[Ala(indazol-1-yl)][NMeE]N[4Pal][Trp(7-Cl)][αMeS][Phe(4-COOH)]Y[Sar][Trp(βS-Me,7-OMe)]C-NH2; thioether N-14) | 1.19 | 5.3
